What was measured:
[1] = test system: albino New Zealand white rabbits; conditions: conclusion from retinal blood flow in rabbits
Method: Retinal blood flow rate in the major temporal vein in the right eye of albino New Zealand white rabbits is measured at pre-administration baseline, as well as post-administration of Alphagan® P as drops, post-administration of a composition comprising brimonidine and a penetration enhancer as a mist, and post-administration of a composition in accordance with the principles of the present invention comprising brimonidine or a salt thereof and being devoid of a penetration enhancer as a mist. […] In this instrument, the measuring laser beam is locked onto the target blood vessel during eye movements through an eye-tracking feedback and control system. Doppler-shifted laser light scattered from a retinal vessel is analyzed to determine centerline blood velocity.
Venous blood flow, which is known to be directly correlated to arterial blood flow, is measured, since retinal veins have a larger diameter than retinal arteries, facilitating better locking of the measuring laser beams onto the target vessel. […]
The beam from a red 675-nm diode laser is used for velocity measurement, emitted from a fundus camera-like measuring head. The Doppler-shifted light scattered from the flowing blood cells in the target vessel is detected simultaneously in two directions, separated by a fixed angle. […]
Following administration of the composition, the blood flow velocity in the same veins is measured.

Glaucoma patients = conditions: normal tension glaucoma patients; cited from earlier work

Row | Structure (SMILES) | efficacy compared between ways of administration or compositions [1] | maintenance of retinal blood flow homeostasis with changes in posture (Glaucoma patients)
1 | Brc1c(NC2=NCCN2)ccc2nccnc12 [brimonidine, 5-Bromo-N-(4,5-dihydro-1H-imidazol-2-yl) quinoxalin-6-amine] | as effective as administration in the form of eye-drops | maintained retinal blood flow homeostasis
2 | CC(C)OC(=O)CCC/C=C\C[C@@H]1[C@@H](CC[C@@H](O)CCc2ccccc2)[C@H](O)C[C@@H]1O [latanoprost] |  | not

Source: US20110262544A1, “OPHTHALMIC ADMINISTRATION OF A COMPOSITION INCLUDING BRIMONIDINE AS A MIST” (PHARMALIGHT INC., priority 2008, published 2011)
